# Source: PMC9312196, “Enzymatic Biosynthesis of Simple Phenolic Glycosides as Potential Anti-Melanogenic Antioxidants” (Antioxidants, 2022)
# Several values for one entry are separate records, joined by “and”; a condition that tells them apart may be missing. Equal values may be shown once. Read-outs that look alike come from different tables or passages of the source.
# Assays:
# [1] = target: T1, porcine pancreas elastase (Sus scrofa, UniProt P00772); experiment: In vitro elastase inhibition with AAAPVN substrate; assay type: biochemical; settings: read-out: elastase inhibitory IC50
# T1 construct: purchased Sigma-Aldrich; host or cells: porcine pancreas
# T1 sequence (P00772 27-266): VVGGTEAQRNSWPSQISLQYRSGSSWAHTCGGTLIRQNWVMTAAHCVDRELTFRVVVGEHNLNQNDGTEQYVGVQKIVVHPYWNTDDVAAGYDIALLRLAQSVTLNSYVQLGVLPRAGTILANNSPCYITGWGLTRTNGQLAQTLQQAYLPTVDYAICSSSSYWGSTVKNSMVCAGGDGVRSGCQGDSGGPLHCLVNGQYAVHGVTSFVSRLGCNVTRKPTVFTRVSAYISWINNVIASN
# Description: The in vitro inhibitory effects of SPs and their glycosides on elastase activity (known as anti-wrinkle bioactivities) were assessed using porcine pancreas elastase (Sigma-Aldrich). Its synthetic substrate AAAPVN (Sigma-Aldrich) was dissolved in phosphate buffer (pH 8.0, 200 mM). In each well of a 96-well microplate, the above elastase (20 μL) was mixed with the SPs and their glycosides in the phosphate buffer (150 μL) and then pre-incubated at 25 °C for 15 min prior to substrate AAAPVN (30 μL) supplementation.
# [2] = target: T2, tyrosinase (mushroom origin) (Agaricus bisporus, UniProt C7FF04); experiment: In vitro tyrosinase inhibition with L-tyrosine as substrate; assay type: biochemical; settings: for IC50: mushroom tyrosinase, L-tyrosine substrate, read-out: tyrosinase inhibitory IC50; for fold higher tyrosinase inhibitory effect than kojic acid: ratio of IC50 values vs kojic acid
# T2 construct: purchased Sigma-Aldrich
# T2 sequence (C7FF04 1-392 limits assumed): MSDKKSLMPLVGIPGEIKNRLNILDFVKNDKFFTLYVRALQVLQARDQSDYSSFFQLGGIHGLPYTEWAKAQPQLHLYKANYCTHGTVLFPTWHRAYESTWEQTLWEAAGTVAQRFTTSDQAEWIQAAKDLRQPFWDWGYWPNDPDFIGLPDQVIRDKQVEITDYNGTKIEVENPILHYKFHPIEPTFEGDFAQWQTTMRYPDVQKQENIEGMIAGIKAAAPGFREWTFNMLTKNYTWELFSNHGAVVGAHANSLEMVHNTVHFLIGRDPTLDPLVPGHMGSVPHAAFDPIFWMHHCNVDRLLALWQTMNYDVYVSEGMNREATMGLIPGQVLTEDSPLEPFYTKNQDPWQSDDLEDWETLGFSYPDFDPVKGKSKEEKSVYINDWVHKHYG
# Description: The in vitro inhibitory effects of SPs and their glycosides towards tyrosinase (Sigma-Aldrich; mushroom origin; 2000 Unit/mL) activities were determined using L-tyrosine as a substrate. Briefly, the reaction mixtures, comprising 100 μL phosphate buffer (pH 6.8, 100 mM), 20 μL of tyrosinase (250 U/mL) and 20 μL of varying concentrations of SPs and their glycosides (in DMSO), were preincubated at 30 °C for 10 min.
# [3] = tested on: intracellular ROS in TBHP-induced B16F10 cells; experiment: DCFDA cellular ROS detection assay in TBHP-induced B16F10 cells; assay type: cell-based, murine; settings: 5.0, 10 and 20 μM tested
# Description: The intracellular reactive oxygen species (ROS) level was quantitatively determined using the dichlorofluorescin diacetate (DCFDA) cellular ROS detection assay kit (ab113851, Abcam, Cambridge, UK), according to the manufacturer’s instructions. Briefly, B16F10 cells were seeded in a 24-well plate at a density of 2 × 10^3 cells/well. The cells were washed three times using PBS and subjected to staining with 20 μM DCFDA in PBS for 20 min at 37 °C under dark conditions. After staining, the cells were washed with PBS again and incubated with 50 μM TBHP solution (Sigma-Aldrich, St. Louis, MO, USA). Cells were treated time-dependently (10, 30 min and 1 h) with the indicated concentrations of SPs and their glycosides in 0.1% bovine serum albumin containing culture media after DCFDA incubation. The ROS level was analyzed by a fluorescence microplate reader (SpectraMax Gemini XPS/EM, Molecular Devices, Sunnyvale, CA, USA) set at an excitation wavelength of 485 nm and an emission wavelength of 545 nm. Relative fluorescence intensity of controls was equated to 100%, with treatment conditions estimated proportionally.
# The in vitro antioxidant activity of SP aglycones and their corresponding glycosides was evaluated through their DPPH-driven radical scavenging abilities in comparison with a well-known antioxidant, L-ascorbic acid. […] Although the mean IC50 values of HPP2G and HPP2DG appear to be a little lower than those of HPP3G and HPP3DG, respectively, there was, however, no statistically significant difference found within (also between) these glycoside groups. Next, we implemented a DCFDA cell-based ROS detection assay to determine whether the SP aglycones and their glycoside analogs function in vivo as antioxidants against intracellular ROS synthesis in the above-described B16F10 cells or not. The TBHP-induced cells were further incubated with different concentrations (5.0, 10 and 20 μM) of SPs and their glycosides for varied time periods (10, 30 min and 1 h).
# StSPGT [4] = tested on: T3, StSPGT; experiment: Michaelis-Menten kinetics of glycosyl transfer by HPLC-MS/MS product quantitation, donor varied 0.1-1.2 mM at fixed 1.0 mM acceptor HPP3, 50 mM phosphate pH 7.4, 10 mM MgCl2, 30 °C.; assay type: biochemical; settings: SD, n = 3
# T3 construct: recombinant, N-terminal His6 tag, pET-28a(+), expressed in E. coli BL21(DE3)
# Description: (§1) To learn more details about the enzymatic function of a recombinant StSPGT, we investigated and determined its bio-catalytic properties using two nucleotide sugars as the glycosyl donor substrates; the production velocities of the corresponding glycosides were plotted against the varied glycosyl donor concentrations, […] with fixed acceptor concentrations. […]
# (§2) the pGEM T-Easy vector (Promega, Madison, WI, USA) and transformed into E. coli XL1-Blue strain (Stratagene, La Jolla, CA, USA). The resultant plasmid obtained from was sequenced; the amplified ORF of interest (annotated as StSPGT) was deposited as GenBank Accession No.
# (§3) The NdeI/XhoI-digested fragment excised from the aforementioned pGEM T-Easy vector was cloned into the same sites of the expression vector pET-28a(+) (Novagen, San Diego, CA, USA) and expressed as an N-terminal fusion protein with an His6 tag in E. coli BL21(DE3) strain (selected with […] kanamycin). After induction using 0.5 mM IPTG (Sigma-Aldrich) followed by an overnight incubation at 22°C, the cells were harvested and then disrupted by ultrasonication. […]
# (§4) imidazole . The protein concentration was determined according to the Bradford method and the purified StSPGT was stored at −20°C prior to enzymatic reactions. […]
# StSPGT [5] = tested on: T3, StSPGT; experiment: Michaelis-Menten kinetics of glycosyl transfer by HPLC-MS/MS product quantitation, donor varied 0.1-1.2 mM at fixed 1.0 mM acceptor HPP2, 50 mM phosphate pH 7.4, 10 mM MgCl2, 30 °C.; assay type: biochemical; settings: SD, n = 3
# Description: as §1, §2, §3, §4
# [6] = tested on: recombinant StSPGT glycosyltransferase; experiment: Michaelis-Menten kinetics of recombinant StSPGT glycosyl transfer; assay type: biochemical, Streptomyces tenjimariensis ATCC 31603
# Description: as §1, §2
# The NdeI/XhoI-digested fragment excised from the aforementioned pGEM T-Easy vector was cloned into the same sites of the expression vector pET-28a(+) (Novagen, San Diego, CA, USA) and expressed as an N-terminal fusion protein with an His6 tag in E. coli BL21(DE3) strain (selected with […] kanamycin). After induction using 0.5 mM IPTG (Sigma-Aldrich) followed by an overnight incubation at 22°C, the cells were harvested and then disrupted by ultrasonication. The His6-tagged protein from the lysate was purified with TALON-metal affinity resin (Clontech, Mountain View, CA, USA) equilibrated with 50 mM phosphate buffer (0.3 M NaCl, 20 mM imidazole) and incubated at 4°C for 1 hr. After 5 min of refrigerated centrifuge at 2000 rpm, the resin was introduced into a disposable column and washed with phosphate buffer containing 20 mM imidazole, equivalent to 8 times the amount of the resin. Finally, recombinant […]
# imidazole . The protein concentration was determined according to the Bradford method and the purified StSPGT was stored at −20°C prior to enzymatic reactions.
# In vitro Enzymatic GT Reactions and Its Kinetic Studies
# After dissolving two SP acceptor substrates, including HPP2 and HPP3, in methanol at 100 mM, we diluted them with a reaction buffer solution (50 mM phosphate buffer, 10 mM magnesium chloride and 1 mg/mL bovine serum albumin; pH 7.4) to the final concentration of 1 mM. Then we added 30 μM StSPGT glycosyltransferase along with four different nucleotide-activated glycosyl […]
# GT reaction at 30°C for 30 min. After reaction, an equal volume of ethyl acetate was immediately added to quench the reaction. The organic solvent layer was evaporated to dryness at 40°C by […]
# vacuum centrifugation (EYELA, Tokyo, Japan), and finally reconstituted in methanol prior to HPLC-tandem mass spectrometric (MS/MS) analysis.
# For the determination of the kinetic parameters for each SP acceptor substrate, the concentration of glycosyl donor was fixed at 2 mM, while the concentration of SP was varied from […]
# [7] = DPPH free radical scavenging assay (in vitro antioxidant activity); settings: 100 μM DPPH, 30 °C, 15 min
# Description: DPPH (1,1-diphenyl-2-picryl-hydrazyl-hydrate) free radical scavenging assay was employed for determining the in vitro antioxidant activity of SP aglycones and their generated glycosides; L-ascorbic acid was utilized as a positive control whereas DMSO only was used as negative control. The antioxidant activities were expressed as IC50 value (as the concentration of an antioxidant at which 50% of inhibition of free radicals). In brief, 1.9 mL of the 100 μM DPPH reagent (in MeOH) was added into 0.1 mL of each sample diluted within 0.1 to 2 mM range (0.1, 0.2, 0.5, 1.0 and 2.0 mM dissolved in DMSO). After being mixed well by shaking for 5 s, the mixtures were then incubated at 30 °C for 15 min, followed by measuring absorbance with a microplate reader at 515 nm.
# [8] = tested on: melanin biosynthesis in B16F10 murine melanoma cells; experiment: Inhibition of α-MSH-induced cellular melanin biosynthesis in B16F10 cells; assay type: cell-based; settings: fixed 20 μM treatments, 48 h, 2 μM α-MSH
# Description: The inhibitory effects of SPs and their glycosides towards cellular melanin biosynthesis were examined using the above-described B16F10 murine melanoma cells. After 24 h seed cultivation in a 24-well plate, these cells were treated with the indicated concentrations of SPs and their glycosides for a further 48 h in the presence of 2 μM α-melanocyte stimulating hormone (α-MSH, Sigma-Aldrich). After washing twice with chilled Dulbecco’s PBS supplemented with calcium chloride and magnesium chloride, the resulting cells were treated with trypsin-EDTA solution (Sigma-Aldrich) to recover melanoma cells. After centrifugation at 1000× […] for 3 min, the cell pellet recovered was dissolved in 100 μL of 1 M NaOH solution (containing 10% DMSO) at 55 °C for 1 h. The melanin content was determined by the absorbance at 405 nm using a microplate reader according to the calibration curve obtained from melanin (Sigma-Aldrich) standards, and melanin synthesis inhibitory activities were expressed as the percentage inhibition of cellular melanin synthesis in the above assay; α-arbutin was used as positive control, while DMSO only was used as negative control.
# [9] = design: method as in PMID 35453457; settings: read-out: DPPH radical scavenging IC50; cited from earlier work
# [10] = tested on: B16F10 murine melanoma cells; experiment: MTT cytotoxicity assay on B16F10 cells; assay type: cell-based; settings: 48 h treatment, highest 20 mM concentration
# Description: The cytotoxic effects of SP aglycones and their glycosides on B16F10 cells was determined using a conventional MTT assay. B16F10 murine melanoma cells were routinely maintained in Dulbecco’s modified Eagle’s medium (DMEM) (Gibco, New York, NY, USA) supplemented with 10% heat-inactivated fetal bovine serum (Gibco), 100 units/mL penicillin and 100 μg/mL streptomycin (Gibco) at 37 °C under humidified 5% CO2 atmosphere. For the assay, these B16F10 cells were seeded in advance in 24-well plastic tissue culture plates at a density of 2 × 10^3 cells/well. After 24 h cultivation, the cells within individual wells were treated with the indicated concentrations of SPs and their glycosides for 48 h. The cells were incubated with MTT solution for additional 4 h in the dark, and the reduced formazan crystals were then dissolved in DMSO; the DMSO percentage in the media was kept below 0.5%. The resulting mixture was transferred to a 96-well microplate, and then the absorbance was measured at 570 nm using a SpectraMax microplate reader (Molecular Devices, Sunnyvale, CA, USA).
# […]. The treatment concentrations of SP aglycones and their glycosides for the bioassays were selected in advance by monitoring their cytotoxicity against the B16F10 murine melanoma cell line using α-arbutin as the reference. […]
# [11] = tested on: B16F10 murine melanoma cells; design: method as in PMID 28467382; settings: concentrations less than 5.0 mM; cited from earlier work
SMILES,IC50 [1] [µM],IC50 [2] [µM],IC50 [7] [µM],maximal ROS-scavenging activity [3] [%],inhibition of α-MSH-induced intracellular melanin biosynthesis [8],other results
"CC(Cc1ccc(O)cc1)O[C@@H]1C[C@@H](O)[C@H](O)[C@@H](CO)O1 (stereo partly drawn) [HPP2DG, hydroxyphenyl-2-propanoyl-O-α-2″-deoxyglucoside]",25.3,13.8,–,54.3,–,–
"Cc1cn([C@H]2C[C@H](O)[C@@H](COP(=O)(O)OP(=O)(O)O[C@@H]3C[C@@H](O)[C@H](O)[C@@H](CO)O3)O2)c(=O)[nH]c1=O [TDP-2′dGlc, thymidine diphosphate-2′-deoxyglucose]",–,–,–,–,–,Km (StSPGT [4]): 0.5 ± 0.09 mM; Km (StSPGT [5]): 0.41 ± 0.07 mM
CCC(O)c1ccc(O)cc1 (stereo not shown) [HPP3],99.1,23.4,19.3,–,21.7%,fold higher tyrosinase inhibitory effect than kojic acid [2]: ~3.3 fold; kcat ([6]; donor TDP-2′dGlc): 0.1865 ± 0.0372 s⁻¹; kcat ([6]; donor UDP-Glc): 0.2812 s⁻¹ and 0.2812 ± 0.0497 s⁻¹
"CC(Cc1ccc(O)cc1)O[C@H]1O[C@H](CO)[C@@H](O)[C@H](O)[C@H]1O (stereo partly drawn) [HPP2G, hydroxyphenyl-2-propanoyl-O-α-glucoside]",22.1,14.8,–,52.0,–,–
"Oc1ccc(O)cc1 [hydroquinone, reference compound]",–,10.3,–,–,–,–
OC[C@H]1O[C@H](Oc2ccc(O)cc2)[C@H](O)[C@@H](O)[C@@H]1O [α-arbutin],–,–,–,–,about 20.3%,change of cell viability [10]: less than 5 % of the control; cytotoxicity for the B16F10 cells [11]: no cytotoxicity

# Further lines, with some results ahead:
IC50 [1] [µM],IC50 [2] [µM],IC50 [7] [µM],SMILES,maximal ROS-scavenging activity [3] [%],inhibition of α-MSH-induced intracellular melanin biosynthesis [8],other results
30.7,30.9,–,CCC(O[C@@H]1C[C@@H](O)[C@H](O)[C@@H](CO)O1)c1ccc(O)cc1 (stereo partly shown) [HPP3DG],45.7,–,–
31.5,29.1,–,CCC(O[C@H]1O[C@H](CO)[C@@H](O)[C@H](O)[C@H]1O)c1ccc(O)cc1 (stereo partly shown) [HPP3G],48.9,–,–
–,–,23,"O=C1O[C@H]([C@@H](O)CO)C(O)=C1O [L-ascorbic acid, reference compound]",–,–,IC50 [9]: 22 µM
95.3,11.6,18.5,CC(O)Cc1ccc(O)cc1 (stereo not shown) [HPP2],–,50.3%,fold higher tyrosinase inhibitory effect than kojic acid [2]: about 6.6 fold; kcat ([6]; donor TDP-2′dGlc): 0.2155 ± 0.0363 s⁻¹; kcat ([6]; donor UDP-Glc): 0.3235 s⁻¹ and 0.3235 ± 0.0537 s⁻¹
